According to patent US20170002385A1, “USING CELL DEBRIS GENERATED FROM PHA RECOVERY FOR ENHANCED CELL GROWTH AND BIOPOLYESTER FORMATION” (BIO ON S.r.l., priority 2009, published 2017):
Values joined by “and” are separate entries in the source; they are usually repeats but may differ in a detail not shown here. Identical values can stand only once.

Tested on: PHA-producing microbial cells
Test: flask cultures: effect of cell debris solutions and SDS on cell growth and PHA formation
Format: cell-based
Conditions: for Cell mass: 12 g/L glucose
Protocol: Starting with cell mass of high PHA content (72% w/w), production of 1 kg of PHA, in a purity of 96.4 w/w, generates about 0.45 kg of cell debris as shown in the scheme reported above. Disposal of this large amount of waste in aqueous solution is a task of high cost, but could be avoided with additional benefit if the cell debris could be reused in PHA fermentation. In order to reveal the effect of cell debris on cell growth and PHA formation, microbial cultures were conducted in 500 mL flasks in parallel. The flask cultures were set up with the same glucose concentrations (10-20 g/L), the same volume of mineral solution (160 mL) as shown in Table 1 reported hereinbelow, and the same inoculum and size. After predetermined amount of cell debris solutions were added, the total volume of flask cultures was raised to 200 mL by adding pre-sterilized distilled and deionized water. The flasks were shaken at 200 rpm and 30 ° C. in a rotary incubator for 24 or 48 hours. The cell mass concentration and PHA content were determined as described in the literature (see Jian Yu and Lilian X. L. Chen (2006), “Cost-effective recovery and purification of polyhydroxyalkanoates by selective dissolution of cell mass”, Biotechnology Progress, 22:547-553). […]
Surfactants such as SDS are optionally used in PHA recovery to disrupt cells and remove lipids and pigments from polyesters. They are soluble and left in the cell debris solutions, which may cause adverse effect on cell growth when the cell debris solution is reused in PHA fermentation. An acid-base cell debris solution containing 48.5 g/L of soluble solids and 5 g/L of SDS was used in this case. In the same flask cultures above (12 g/L of glucose), 8 mL of ABCDS was added to give 1.94 g/L of cell debris and 0.2 g/L of SDS. Additional SDS was also added to increase SDS concentration to 0.4, 0.6 and 0.8 g/L. Table 4 gives the results of cell growth and PHA formation at different surfactant levels. […] The benefit of cell debris at low SDS concentration (0.2-0.4 g/L) leads to 200-300% of increase in PHA concentration in comparison with the control.

SMILES: CCCCCCCCCCCCOS(=O)(=O)[O-].[Na+] [SDS, sodium dodecyl sulfate]
- PHA formation vs control without cell debris and surfactant (SDS 0.2-0.6 g/L with 1.94 g/L cell debris): enhanced
- Cell mass (SDS 0.2 g/L with 1.94 g/L cell debris (ABCDS), 24 hours): 3.69 g/L
- Cell mass (SDS 0.2 g/L with 1.94 g/L cell debris (ABCDS), 48 hours): 4.99 g/L
- Cell mass (SDS 0.4 g/L with 1.94 g/L cell debris (ABCDS), 24 hours, sulfate): 3.22 g/L and 3.33 g/L
- Cell mass (SDS 0.4 g/L with 1.94 g/L cell debris (ABCDS), 48 hours, sulfate): 4.46 g/L and 4.62 g/L
- Cell mass (SDS 0.6 g/L with 1.94 g/L cell debris (ABCDS), 24 hours): 2.70 g/L
- Cell mass (SDS 0.6 g/L with 1.94 g/L cell debris (ABCDS), 48 hours): 3.51 g/L
- PHA formation vs control without cell debris and surfactant (SDS 0.8 g/L with 1.94 g/L cell debris): damaged to a great extent
- Cell mass (SDS 0.8 g/L with 1.94 g/L cell debris (ABCDS), 24 hours): 2.59 g/L
- Cell mass (SDS 0.8 g/L with 1.94 g/L cell debris (ABCDS), 48 hours): 3.54 g/L
